Measurements reported in patent publication US12390451B2, “Small molecule inhibitor of the JAK family of kinases” (Janssen Pharmaceutica NV, priority 2021, dated 2025).
Read-outs that look alike come from different tables or passages of the source.

Assay: Tissue distribution in rats after oral administration
Assay type: in vivo, male Sprague-Dawley rats
Details: male, Sprague-Dawley, rat, PO 25 mg/kg
Procedure: Preliminary tissue distribution studies were conducted in male Sprague-Dawley rats (N=3/time point) at 0.5, 1, 2, 3, 5, 7, and 24 hours following oral administration of compound of Formula I at a dose of 25 mg/kg. The following tissues were harvested for compound concentration analysis: liver, kidney, brain, muscle, epididymis fat, duodenum, jejunum, ileum, colon (both lumen content and tissue), and plasma. The results of this study indicated low systemic exposure and high local concentrations (intestinal tract).

[1] = duodenum lumen content, average, N = 3, read-out: Duod. Content concentration
[2] = duodenum tissue, average, N = 3, read-out: Duod. Tissue concentration
[3] = ileum lumen content, average, N = 3, read-out: Ileum Content concentration
[4] = ileum tissue, average, N = 3, read-out: Ileum Tissue concentration
[5] = jejunum lumen content, average, N = 3, read-out: Jejunum Content concentration
[6] = jejunum tissue, average, N = 3, read-out: Jejunum Tissue concentration
[7] = kidney, average ±SD, read-out: Kidney concentration
[8] = liver, average ±SD, read-out: Liver concentration
[9] = plasma, average ±SD, read-out: Plasma concentration

For `CC(C)(O)CNC(=O)Cc1nc2cnc3[nH]ccc3c2n1[C@H]1CC[C@H](CC#N)CC1` [Compound of Formula I, 2-(1-((1r,4r)-4-(Cyanomethyl)cyclohexyl)-1,6-dihydroimidazo[4,5-d]pyrrolo[2,3-b]pyridin-2-yl)-N-(2-hydroxy-2-methylpropyl)acetamide], the concentration at 0.5 h [1] was 329000 ng/mL, the concentration at 1 h [1] was 45500 ng/mL and the concentration at 2 h [1] was 20200 ng/mL. The concentration at 3 h [1] was 15800 ng/mL, the concentration at 5 h [1] was 4470 ng/mL and the concentration at 7 h [1] was 2630 ng/mL. It also gave a concentration at 24 h [1] of 60 ng/mL, a concentration at 0.5 h [2] of 35200 ng/g and a concentration at 1 h [2] of 16700 ng/g. It also gave a concentration at 2 h [2] of 3170 ng/g, a concentration at 3 h [2] of 3840 ng/g and a concentration at 5 h [2] of 1100 ng/g. The concentration at 7 h [2] was 366 ng/g, the concentration at 24 h [2] was 17 ng/g and the concentration at 0.5 h [3] was 644 ng/mL. The concentration at 1 h [3] was 496 ng/mL, the concentration at 2 h [3] was 725000 ng/mL and the concentration at 5 h [3] was 597000 ng/mL. The concentration at 7 h [3] was 133000 ng/mL, the concentration at 24 h [3] was 893 ng/mL and the concentration at 0.5 h [4] was 1340 ng/g. The concentration at 1 h [4] was 252 ng/g, the concentration at 2 h [4] was 8950 ng/g and the concentration at 3 h [4] was 50800 ng/g. For the same molecule, the concentration at 5 h [4] was 18000 ng/g, the concentration at 7 h [4] was 6490 ng/g and the concentration at 0.5 h [5] was 533000 ng/mL. The concentration at 1 h [5] was 249000 ng/mL, the concentration at 2 h [5] was 90700 ng/mL and the concentration at 3 h [5] was 48000 ng/mL. It also gave a concentration at 5 h [5] of 26300 ng/mL, a concentration at 7 h [5] of 10300 ng/mL and a concentration at 24 h [5] of 228 ng/mL. It also gave a concentration at 0.5 h [6] of 47200 ng/g, a concentration at 1 h [6] of 23500 ng/g and a concentration at 2 h [6] of 8230 ng/g. For the same molecule, the concentration at 3 h [6] was 3980 ng/g, the concentration at 5 h [6] was 1810 ng/g and the concentration at 7 h [6] was 788 ng/g. It also gave a concentration at 24 h [6] of 27 ng/g, a concentration at 0.5 h [7] of 57.9 ± 26.2 ng/g and a concentration at 2 h [7] of 24.3 ± 6.6 ng/g. The concentration at 3 h [7] was 30 ± 9.4 ng/g, the concentration at 5 h [7] was 12.9 ± 3.6 ng/g and the concentration at 7 h [7] was 19.9 ± 7.8 ng/g. For the same molecule, the concentration at 0.5 h [8] was 158 ± 104 ng/g, the concentration at 1 h (liver, SD NA, read-out: Liver concentration) was 70.4 ng/g and the concentration at 2 h [8] was 49.9 ± 17.5 ng/g. For the same molecule, the concentration at 3 h [8] was 29.6 ± 14.5 ng/g, the concentration at 5 h [8] was 18.7 ± 3 ng/g and the concentration at 7 h [8] was 20.7 ± 3 ng/g. For the same molecule, the concentration at 0.5 h (muscle, average ±SD, read-out: Muscle concentration) was 16.7 ± 15 ng/g, the concentration at 0.5 h [9] was 6.3 ± 1.1 ng/mL and the concentration at 2 h [9] was 3.7 ± 0.9 ng/mL. For the same molecule, the concentration at 3 h [9] was 3.1 ± 1.1 ng/mL, the concentration at 5 h [9] was 1.5 ± 0.7 ng/mL and the concentration at 7 h [9] was 2.1 ± 0.5 ng/mL.
